Legend:
[1] = target: T1, Syk (Homo sapiens, UniProt P43405); assay: Syk Biochemical Assay (ADP-Glo luminescence); settings: ATP 40 μM final, 60 minutes, read-out: SYK Biochem IC50
T1 construct: purchased Promega
Description: Compounds were serially diluted in 100% DMSO, prior to an intermediate dilution in water. In a low volume white 384-well Proxiplate (Perkin Elmer), 1 μL of compound (0.4% final DMSO) was added to 3 μL of 10 ng/well Syk (Promega) and 0.2 mg/mL Poly-E4Y1 substrate (Promega) in assay buffer (final 40 mM Tris-HCl pH 7.4, 20 mM MgCl2, 0.1 mg/mL BSA) for 5 minutes. The reaction was initiated by addition of 1 μL of ATP (40 μM final) and allowed to proceed for 60 minutes at room temperature. The reaction was terminated by addition of 5 μL of ADP-Glo Reagent Mix (Promega) containing 1 mM MgCl2 for 45 minutes at room temperature. 10 μL of Kinase Detection Reagent (Promega) was added and incubated for 10 minutes at room temperature, before luminescence was measured using an Ensight Multimode Plate Reader (Perkin Elmer).

[2] = target: T2, Ba/F3-Syk cells (Homo sapiens, UniProt P43405); assay: Ba/F3 Proliferation Assay, Ba/F3-Syk cells (Resazurin); assay type: cell-based; settings: 48-hour incubation
T2 construct: fused on or other part: Possible but unprinted fusion partner: TEL (ETV6), the usual partner for Ba/F3 lines transformed by Syk; Nothing on a partner is printed

[3] = system: Ba/F3-WT (wild type) cells; assay: Ba/F3 Proliferation Assay, Ba/F3-WT (wild type) cells with mIL-3 (Resazurin); assay type: cell-based; settings: Mus musculus, BaF3, 48 h, Ba/F3-WT cells +mIL-3, 48-hour incubation

IC50 [1] [nM]	EC50 [2] [nM]	EC50 [3] [nM]	SMILES
106	440	5800	c1cnc2cc(-c3cn[nH]c3)nc(OC[C@@H]3CNCCO3)c2c1 [Compound 2.23, 5-{[(2S)-morpholin-2-yl]methoxy}-7-(1H-pyrazol-4-yl)-1,6-naphthyridine]
23.5	48.4	4760	Cn1cc(-c2cc3ncccc3c(OC[C@@H]3CNCC(C)(C)O3)n2)cn1 [Compound 2.32, 5-{[(2S)-6,6-dimethylmorpholin-2-yl]methoxy}-7-(1-methyl-1H-pyrazol-4-yl)-1,6-naphthyridine]
31.9	79.9	2520	Cn1cc(-c2cc3ncccc3c(OC[C@@H]3CNCC4(CC4)O3)n2)cn1 [Compound 2.43, 7-(1-methyl-1H-pyrazol-4-yl)-5-{[(5S)-4-oxa-7-azaspiro[2.5]octan-5-yl]methoxy}-1,6-naphthyridine]
9.2	17.8	1480	CC(C)n1cc(-c2cc3ncccc3c(OC[C@@H]3CNCC(C)(C)O3)n2)cn1 [Compound 2.45, 5-{[(2S)-6,6-dimethylmorpholin-2-yl]methoxy}-7-[1-(propan-2-yl)-1H-pyrazol-4-yl]-1,6-naphthyridine]
19	65	3430	CC1(C)CNC[C@@H](COc2nc(-c3cnn(C4CC4)c3)cc3ncccc23)O1 [Compound 2.46, 7-(1-cyclopropyl-1H-pyrazol-4-yl)-5-{[(2S)-6,6-dimethylmorpholin-2-yl]methoxy}-1,6-naphthyridine]
71	47.1	3050	CC(C)(C)n1cc(-c2cc3ncccc3c(OC[C@@H]3CNCCCO3)n2)cn1 [Compound 2.49, 7-(1-tert-butyl-1H-pyrazol-4-yl)-5-{[(2S)-1,4-oxazepan-2-yl]methoxy}-1,6-naphthyridine]
22.1	57.4	9830	Cn1ccc(-c2cc3ncccc3c(OC[C@@H]3CNCCCO3)n2)c1 [Compound 2.52, 7-(1-methyl-1H-pyrrol-3-yl)-5-{[(2S)-1,4-oxazepan-2-yl]methoxy}-1,6-naphthyridine]
10	21.6	> 10000	CC1(C)CNC[C@@H](COc2nc(-c3ccn(C(C)(C)C)c3)cc3ncccc23)O1 [Compound 2.57, 7-(1-tert-butyl-1H-pyrrol-3-yl)-5-{[(2S)-6,6-dimethylmorpholin-2-yl]methoxy}-1,6-naphthyridine]
9.6	25.4	6710	CC(C)(C)n1ccc(-c2cc3ncccc3c(OC[C@@H]3CNCCO3)n2)c1 [Compound 2.58, 7-(1-tert-butyl-1H-pyrrol-3-yl)-5-{[(2S)-morpholin-2-yl]methoxy}-1,6-naphthyridine]
24.6	26.6	4070	Cn1ccc(-c2cc3ncccc3c(OC[C@@H]3CNCC4(CC4)O3)n2)c1 [Compound 2.60, 7-(1-methyl-1H-pyrrol-3-yl)-5-{[(5S)-4-oxa-7-azaspiro[2.5]octan-5-yl]methoxy}-1,6-naphthyridine]
26.4	20.6	2870	CC(C)(C)n1cc(-c2cc3ncccc3c(OC[C@@H]3CNCC4(CC4)O3)n2)cn1 [Compound 2.63, 7-(1-tert-butyl-1H-pyrazol-4-yl)-5-{[(5S)-4-oxa-7-azaspiro[2.5]octan-5-yl]methoxy}-1,6-naphthyridine]
30.1	13.5	> 10000	CC(C)(C)n1ccc(-c2cc3ncccc3c(OC[C@@H]3CNCCCO3)n2)c1 [Compound 2.69, 7-(1-tert-butyl-1H-pyrrol-3-yl)-5-{[(2S)-1,4-oxazepan-2-yl]methoxy}-1,6-naphthyridine]
17.6	44.8	2760	C[C@@H]1CNC[C@@H](COc2nc(-c3cnn(C)c3)cc3ncccc23)O1 [Compound 2.76, 7-(1-methyl-1H-pyrazol-4-yl)-5-{[(2S,6R)-6-methylmorpholin-2-yl]methoxy}-1,6-naphthyridine]
28.3	18.6	846	CC(C)[C@@H]1CNC[C@@H](COc2nc(-c3cnn(C(C)(C)C)c3)cc3ncccc23)O1 [Compound 2.98, 7-(1-tert-butyl-1H-pyrazol-4-yl)-5-{[(2S,6R)-6-(propan-2-yl)morpholin-2-yl]methoxy}-1,6-naphthyridine]
21.4	17.8	1010	CC(C)(C)n1cc(-c2cc3ncccc3c(OC[C@@H]3CNC[C@@H](C(F)F)O3)n2)cn1 [Compound 2.99, 7-(1-tert-butyl-1-pyrazol-4-yl)-5-{[(2S,6S)-6-(difluoromethyl)morpholin-2-yl]methoxy}-1,6-naphthyridine]
278	362	3010	CC(C)(C)[C@H]1CNC[C@@H](COc2nc(-c3cnn(C(C)(C)C)c3)cc3ncccc23)O1 [Compound 2.100, 7-(1-tert-butyl-1H-pyrazol-4-yl)-5-{[(2S,6S)-6-tert-butylmorpholin-2-yl]methoxy}-1,6-naphthyridine]
40	25.4	628	CC(C)(C)[C@@H]1CNC[C@@H](COc2nc(-c3cnn(C(C)(C)C)c3)cc3ncccc23)O1 [Compound 2.101, 7-(1-tert-butyl-1H-pyrazol-4-yl)-5-{[(2S,6R)-6-tert-butylmorpholin-2-yl]methoxy}-1,6-naphthyridine]
12.9	11.7	1070	CC(C)(C)n1cc(-c2cc3ncccc3c(OC[C@@H]3CNC[C@H](C4CC4)O3)n2)cn1 [Compound 2.102, 7-(1-tert-butyl-1H-pyrazol-4-yl)-5-{[(2S,6S)-6-cyclopropylmorpholin-2-yl]methoxy}-1,6-naphthyridine]
30.5	32.7	985	CC(C)(C)n1cc(-c2cc3ncccc3c(OC[C@@H]3CNC[C@@H](C4CC4)O3)n2)cn1 [Compound 2.103, 7-(1-tert-butyl-1H-pyrazol-4-yl)-5-{[(2S,6R)-6-cyclopropylmorpholin-2-yl]methoxy}-1,6-naphthyridine]
16.6	33.1	1570	CC(C)[C@H]1CNC[C@@H](COc2nc(-c3cnn(C(C)(C)C)c3)cc3ncccc23)O1 [Compound 2.104, 7-(1-tert-butyl-1H-pyrazol-4-yl)-5-{[(2S,6S)-6-(propan-2-yl)morpholin-2-yl]methoxy}-1,6-naphthyridine]
6.21	31.1	1550	CC(C)(C)n1cc(-c2cc3ncccc3c(OC[C@@H]3CNC[C@H](C(F)F)O3)n2)cn1 [Compound 2.105, 7-(1-tert-butyl-1H-pyrazol-4-yl)-5-{[(2S,6R)-6-(difluoromethyl)morpholin-2-yl]methoxy}-1,6-naphthyridine]
11.8	23.5	2370	CC1(C)CNC[C@@H](COc2cc(-c3cnn(C(C)(C)C)c3)cc3ncccc23)O1 [Compound 3.2, 7-(1-tert-butyl-1H-pyrazol-4-yl)-5-{[(2S)-6,6-dimethylmorpholin-2-yl]methoxy} quinoline]
29.3	47.4	926	CC(C)n1cc(-c2cc(OC[C@@H]3CNCCO3)c3cccnc3c2)cn1 [Compound 3.4, 5-{[(2S)-morpholin-2-yl]methoxy}-7-[1-(propan-2-yl)-1H-pyrazol-4-yl]quinoline]

Source: US20250263408A1 (Uniquest Pty Ltd, priority 2022, published 2025)
